Laboratory results from patent US9353075B2, “Disubstituted beta-lactones as inhibitors of N-acylethanolamine acid amidase (NAAA)” (The Regents of the University of California, priority 2011, dated 2016).

Key:
r-NAAA = r-NAAA (Rattus norvegicus (Rat), UniProt Q5KTC7); assay: r-NAAA inhibition, rat lung lysosomal NAAA preparation, UPLC/MS; type: biochemical
Description: Lysosomal NAAA protein preparation were obtained by homogenizing male Sprague-Dawley rat lungs (Charles River) in 20 mM Tris-HCl buffer pH 7.4 containing 0.32M sucrose. Samples were centrifuged at 800×g for 15 minutes at 4° C. Supernatants were then centrifuged at 12,000 g for 30 minutes at 4° C. Pellets were then resuspended in PBS pH 7.4 and subjected to a freeze/thaw cycle at −80° C. The suspension was finally centrifuged at 105,000×g for 1 hour at 4° C. The supernatant was then used in the enzymatic assay.
NAAA protein preparation was pre-incubated with various concentrations of test compounds or vehicle control in 100 mM NaH2PO4/Citrate buffer, 1% Triton-X, 3 mM DTT (pH 4.5) for 30 minutes at 37° C. Samples were then incubated with heptadecenoylethanolamide (50 μM, Avanti Polar Lipids) at 37° C. for 30 min. The reaction was terminated by addition of cold methanol containing heptadecanoic acid (NuCheck Prep) as internal standard. Samples were then analyzed by UPLC/MS (Acquity, Waters). Heptadecenoic and heptadecanoic acids were eluted on an Acquity UPLC BEH C18 column (50 mm length, 2.1 mm i.d., 1.7 μm pore size, Waters) isocratically at 0.5 mL/min for 1.5 min with a solvent mixture of 95% methanol and 5% water, both containing 0.25% Acetic Acid and 5 mM Ammonium Acetate. The column temperature was 40° C. Electrospray ionization was in the negative mode, capillary voltage was 0.5 kV, cone voltage was […], desolvation temperature was 500° C. N2 was used as drying gas at a flow rate of 1000 L/hour and a temperature of 500° C. The [M−H]^− ion was monitored in the selected-ion monitoring mode (m/z values: heptadecenoic acid 267.37, heptadecanoic acid 269.37). Calibration curves were generated using commercial heptadecenoic acid (NuCheck Prep). Inhibition of NAAA activity was calculated as reduction of heptadecenoic acid in the samples compared to vehicle controls. IC50 values were calculated by non-linear regression analysis of log [concentration]/inhibition curves using GraphPad Prism 5 (GraphPad Software Inc., CA—USA) applying a standard slope curve fitting.

h-NAAA = h-NAAA (Homo sapiens (Human), UniProt Q02083); assay: UPLC/MS h-NAAA assay; type: biochemical
Description: NAAA protein preparation (10 μg) was pre-incubated with various concentrations of test compound or vehicle control in 100 mM NaH2PO4, 100 mM Tri Sodium Citrate Dehydrate, 0.1% Triton-X 100, 3 mM DTT, pH 4.5 for 30 min at 37° C. Duplicate samples were then incubated with 50 μM C17:1 10-cis-heptadecenoylethanolamide (Avanti Polar Lipids, Alabaster, Ala.—USA) at 37° C. for 30 minutes. The reaction was terminated by the addition of 0.2 mL of cold methanol containing 1 nmol of heptadecanoic acid (NuChek Prep, Elysian, Minn.—USA) as internal standard. Samples were then analyzed by UPLC/MS. Heptadecenoic and heptadecanoic acids were eluted on an Acquity UPLC BEH C18 column (50 mm length, 2.1 mm i.d., 1.7 μm pore size, Waters) isocratically at 0.5 mL/min for 1.5 min with a solvent mixture of 95% methanol and 5% water, both containing 0.25% Acetic Acid and 5 mM Ammonium Acetate. The column temperature was 40° C. Electrospray ionization was in the negative mode, capillary voltage was 2.7 kV, cone voltage was 45 V, extractor voltage was 3 V. The source temperature was 150° C. with a desolvation temperature of 400° C. N2 was used as drying gas at a cone flow of 100 L/hour and a desolvation flow of […]. The [M−H]-ion was monitored in the selected-ion monitoring mode (m/z values: heptadecenoic acid 267.37, heptadecanoic acid 269.37). Calibration curves were generated using commercial heptadecenoic acid (NuCheck Prep) Inhibition of NAAA activity was calculated as reduction of heptadecenoic acid in the samples compared to vehicle controls. IC50 values were calculated by non-linear regression analysis of log [concentration]/inhibition curves using GraphPad Prism 5 (GraphPad Software Inc., CA—USA) applying a standard slope curve fitting.

Acid Ceramidase (AC) = Acid Ceramidase (AC) (Rattus norvegicus (Rat), UniProt Q6P7S1); assay: Acid ceramidase inhibition, recombinant rat AC, LC-MS; type: biochemical; settings: for inhibition at 0.3 µM: read-out: r-AC % inhib. @ 0.3 μM; for inhibition at 10 µM: read-out: r-AC % inhib. @ 10 μM; for IC50: read-out: r-AC IC50
Description: The PCR (High Fidelity PCR Master, Roche) product was subcloned into a pEF6-[…] vector (Invitrogen) to construct a mammalian expression vector encoding […]-tagged rat AC. HEK293 cells were transfected with pEF6-rAC-[…] using Super-Fect reagent (Qiagen) and screened with G418 (0.3 mg/mL). Cells were suspended in 20 mM Tris HCl (pH 7.5) containing 0.32M sucrose, sonicated and centrifuged at 800×g for 15 minutes at 4° C. The supernatants were centrifuged again at 12,000×g for 30 minutes at 4° C. The pellets were suspended in phosphate-buffered saline (PBS) and subjected to 2 freeze-thaw cycles at -80° C. The suspensions were centrifuged at 105,000×g for 1 hour at 4° C. The supernatants containing recombinant AC were kept at -80° C. until use. Protein concentration was measured using the bicinchoninic acid (BCA) assay (Pierce). […] Reactions were stopped by addition of a mixture of chloroform/methanol (2:1, vol/vol) containing 1 nmol of heptadecanoic acid (HDA; NuChek Prep). […] HDA was eluted on an XDB Eclipse C18 column isocratically at 2.2 mL/min for 1 minute with a solvent mixture of 95% methanol and 5% water, both containing 0.25% acetic acid and 5 mM ammonium acetate. The column temperature was 50° C. Electrospray ionization (ESI) was in the negative mode, capillary voltage as 4 kV, and fragmentor voltage was 100 V. N2 was used as drying gas at a flow rate of 13 L/min and a temperature of 350° C. Nebulizer pressure was set at 60 psi. We monitored [M-H]- in the selected-ion monitoring (SIM) mode using HDA as internal standard. Calibration curves were generated using commercial lauric acid (Nu-Chek Prep; m/z=199).

DNFB-induced dermatitis = assay: DNFB contact dermatitis in mice, ear thickness; type: in vivo, mouse; settings: mice, PEG 400 solution, each day for 7 days; (S)-OOPP 0.1-10% w/v, compound 6 0.1%
Description: 2,4-dinitrofluorobenzene (DNFB) (Sigma-Aldrich, Italy) was dissolved in acetone. On day 1 and 2, mice (CD1, 25-30 g, Charles River, Calco, Italy) were sensitized on the skin of the abdomen with hapten (20 μL of 0.5% DNFB). After 5 days, on day 7, mice were challenged with hapten (20 μL of 0.2% DNFB) in the earlobe and treated with drugs to be tested. Control group received the vehicle used to dissolve drugs. Mice (five per group) were placed in a plastic cage. On day 8, ear thickness was determined after challenge using a caliper. Results are expressed as absolute ear thickness.
Fresh drug suspensions of compound 6 were prepared immediately before use in a vehicle consisting of petrolatum plus 5% lauric acid and given in a volume of 20 μL/mouse. Mice were treated with different concentrations of compound 6 or vehicle together with DNFB challenge on […].
Compound 6 and the reported β-lactone NAAA inhibitor (S)-OOPP (Solorzano et al., Proceedings of the National Academy of Science USA 2009, 106, 20966-20971; Solorzano et al., Journal of Medicinal Chemistry 2010, 53, 5770-5781) were tested in this model for their contact sensitivity response. Fresh drug solutions of (S)-OOPP and compound 6 were prepared immediately before use in polyethylene glycol 400 (PEG 400) and given in a volume of 20 μL/ear. Mice were treated with different concentrations of (S)-OOPP, 0.1% compound 6 or vehicle each day for 7 days. Ear thickness was determined on day 0 and every day before challenge using a caliper. Results are expressed as absolute ear thickness.
The methods included the following. Dermatitis was produced in mice using 2-4 dinitrofluorobenzene (DNFB) as described by Buckley and Nijkamp (1994), Am J Respir Grit Care Med 149:400-7. Mice were sensitized on two consecutive days with a 0.5% DNFB solution applied to the shaved abdomen. At day 8, the ears were challenged with a 0.2% DNFB solution. Ear thickness was determined by using a micrometer. Scratching was evaluated as number of episodes per 60 minutes period. Data were analysed by ANOVA followed by the Bonferroni's test. See also Hargreaves K, et al (1988), Pain 32: 77-88 for related information.

Sequence of Acid Ceramidase (AC) (Q6P7S1 21-394): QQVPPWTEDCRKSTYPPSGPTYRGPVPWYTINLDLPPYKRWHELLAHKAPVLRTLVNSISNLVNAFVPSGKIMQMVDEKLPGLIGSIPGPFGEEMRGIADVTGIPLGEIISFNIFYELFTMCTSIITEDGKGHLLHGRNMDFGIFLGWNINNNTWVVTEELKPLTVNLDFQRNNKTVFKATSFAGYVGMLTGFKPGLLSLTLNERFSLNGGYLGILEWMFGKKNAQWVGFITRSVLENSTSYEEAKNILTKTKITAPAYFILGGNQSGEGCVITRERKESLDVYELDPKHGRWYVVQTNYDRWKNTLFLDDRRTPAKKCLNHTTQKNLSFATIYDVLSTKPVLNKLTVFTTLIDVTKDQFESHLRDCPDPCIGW
Sequence of h-NAAA (Q02083 29-359): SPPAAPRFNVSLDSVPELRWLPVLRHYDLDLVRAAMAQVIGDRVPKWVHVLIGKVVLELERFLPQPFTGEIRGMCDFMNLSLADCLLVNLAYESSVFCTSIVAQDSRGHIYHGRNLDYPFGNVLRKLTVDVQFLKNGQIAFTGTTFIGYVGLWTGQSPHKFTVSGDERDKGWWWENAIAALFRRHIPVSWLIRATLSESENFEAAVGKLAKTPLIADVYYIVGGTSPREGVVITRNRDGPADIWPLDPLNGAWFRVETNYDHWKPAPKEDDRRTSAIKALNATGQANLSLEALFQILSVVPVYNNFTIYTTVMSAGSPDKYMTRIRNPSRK
Sequence of r-NAAA (Q5KTC7 34-362): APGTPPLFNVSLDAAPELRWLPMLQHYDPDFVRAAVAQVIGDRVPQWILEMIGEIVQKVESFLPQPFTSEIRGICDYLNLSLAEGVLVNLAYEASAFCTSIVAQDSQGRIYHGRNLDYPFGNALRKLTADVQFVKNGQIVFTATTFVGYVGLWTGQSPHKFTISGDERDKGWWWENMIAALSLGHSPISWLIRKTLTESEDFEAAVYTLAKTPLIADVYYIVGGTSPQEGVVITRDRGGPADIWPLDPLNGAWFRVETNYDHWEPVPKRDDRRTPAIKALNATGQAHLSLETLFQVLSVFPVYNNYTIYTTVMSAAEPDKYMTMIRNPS

| Compound | IC50 (r-NAAA) [nM] | IC50 (h-NAAA) [nM] | inhibition at 0.3 µM (Acid Ceramidase (AC)) [%] | Contact sensitivity response (ear swelling) (DNFB-induced dermatitis) | inhibition at 10 µM (Acid Ceramidase (AC)) [%] | IC50 (Acid Ceramidase (AC)) [nM] |
| --- | --- | --- | --- | --- | --- | --- |
| CC(CCCCc1ccccc1)OC(=O)N[C@H]1C(=O)O[C@H]1C (mixture of isomers) [Example 22, [(1R) and (1S)-1-methyl-5-phenyl-pentyl]-N-[(2S,3R)-2-methyl-4-oxo-oxetan-3-yl]-carbamate] | 30 | 14 | < 10 |  |  |  |
| O=C(CCc1ccccc1)N[C@H]1COC1=O [(S)-OOPP, N-[(3S)-2-oxo-3-oxetanyl]-3-phenylpropanamide, reference compound] |  |  |  | did not inhibit contact sensitivity response |  |  |
| CCCCCCCCOC(=O)N[C@H]1C(=O)O[C@H]1C [Example 2, Octyl-[(2S,3R)-2-methyl-4-oxooxetan-3-yl]-carbamate] | 30 |  | < 10 |  |  |  |
| C[C@@H]1OC(=O)[C@@H]1NC(=O)OCCCCc1ccccc1 [Example 5, 4-phenylbutyl-[(2S,3R)-2-methyl-4-oxooxetan-3-yl]-carbamate] | 390 |  | < 10 |  |  |  |
| CCCCCCC[C@H](C)OC(=O)N[C@H]1C(=O)O[C@H]1C [Example 7, [(1S)-1-methyloctyl]-N-[(2S,3R)-2-methyl-4-oxo-oxetan-3-yl]-carbamate] | 16 | 5 |  |  | 45 |  |
| C[C@@H]1OC(=O)[C@@H]1NC(=O)OC12CC3CC(CC(C3)C1)C2 [Example 12, Tricyclo[3.3.1.1^3,7]dec-1-yl [(2S,3R)-2-methyl-4-oxooxetan-3-yl]-carbamate] | 870 | 540 |  |  |  |  |
| C[C@@H]1OC(=O)[C@@H]1NC(=O)OCc1ccc(-c2ccccc2)cc1 [Example 17, (4-phenylphenyl)methyl-N-[(2S,3R)-2-methyl-4-oxo-oxetan-3-yl]-carbamate] | 7 | 7 |  |  | 30 |  |
| C[C@@H]1OC(=O)[C@@H]1NC(=O)OCCCOCc1ccccc1 [Example 18, 3-Benzyloxypropyl-N-[(2S,3R)-2-methyl-4-oxo-oxetan-3-yl]-carbamate] | 50 | 18 |  |  | < 10 |  |
| C[C@@H]1OC(=O)[C@@H]1NC(=O)OC(C)(C)CCCCc1ccccc1 [Example 25, (1,1-Dimethyl-5-phenyl-pentyl)-N-[(2S,3R)-2-methyl-4-oxo-oxetan-3-yl]-carbamate] | 310 |  | < 10 |  |  |  |
| C[C@@H]1OC(=O)[C@H]1NC(=O)OCCCCCc1ccccc1 [Example 32, 5-Phenylpentyl-N-[(2S,3S)-2-methyl-4-oxo-oxetan-3-yl]-carbamate] | 480 |  |  |  |  | 3800 |
| C[C@@H]1OC(=O)[C@@H]1NC(=O)OCCCCCC1CCCCC1 [Example 35, 5-Cyclohexylpentyl-N-[(2S,3R)-2-methyl-4-oxo-oxetan-3-yl]-carbamate] | 16 | 5 |  |  | < 10 |  |
| O=C(N[C@H]1COC1=O)OCCCCCc1ccccc1 [drawing 83, reference compound] | 6850 |  |  |  |  | 1530 |
| O=C(N[C@@H]1COC1=O)OCCCCCc1ccccc1 [reference compound] | 510 |  |  |  |  | 30000 ± 2500 |
